Columns and labels:
[1] = DRUGMATRIX: Phosphodiesterase PDE4 enzyme inhibition (substrate: [3H]cAMP + cAMP); conditions: u-937, Not Active = under 50% inhibition at 10 µM
[2] = molecular target: Histamine H2 receptor (Homo sapiens, UniProt P25021); format: cell membranes, CHO-K1, Membrane; further: in other assays of this panel Not Active means under 50% inhibition at 10 µM
[3] = molecular target: Voltage-gated inwardly rectifying potassium channel KCNH2 (Homo sapiens, UniProt Q12809); conditions: hek293; further: in other assays of this panel Not Active means under 50% inhibition at 10 µM
Sequence of Voltage-gated inwardly rectifying potassium channel KCNH2 (Q12809 whole entry): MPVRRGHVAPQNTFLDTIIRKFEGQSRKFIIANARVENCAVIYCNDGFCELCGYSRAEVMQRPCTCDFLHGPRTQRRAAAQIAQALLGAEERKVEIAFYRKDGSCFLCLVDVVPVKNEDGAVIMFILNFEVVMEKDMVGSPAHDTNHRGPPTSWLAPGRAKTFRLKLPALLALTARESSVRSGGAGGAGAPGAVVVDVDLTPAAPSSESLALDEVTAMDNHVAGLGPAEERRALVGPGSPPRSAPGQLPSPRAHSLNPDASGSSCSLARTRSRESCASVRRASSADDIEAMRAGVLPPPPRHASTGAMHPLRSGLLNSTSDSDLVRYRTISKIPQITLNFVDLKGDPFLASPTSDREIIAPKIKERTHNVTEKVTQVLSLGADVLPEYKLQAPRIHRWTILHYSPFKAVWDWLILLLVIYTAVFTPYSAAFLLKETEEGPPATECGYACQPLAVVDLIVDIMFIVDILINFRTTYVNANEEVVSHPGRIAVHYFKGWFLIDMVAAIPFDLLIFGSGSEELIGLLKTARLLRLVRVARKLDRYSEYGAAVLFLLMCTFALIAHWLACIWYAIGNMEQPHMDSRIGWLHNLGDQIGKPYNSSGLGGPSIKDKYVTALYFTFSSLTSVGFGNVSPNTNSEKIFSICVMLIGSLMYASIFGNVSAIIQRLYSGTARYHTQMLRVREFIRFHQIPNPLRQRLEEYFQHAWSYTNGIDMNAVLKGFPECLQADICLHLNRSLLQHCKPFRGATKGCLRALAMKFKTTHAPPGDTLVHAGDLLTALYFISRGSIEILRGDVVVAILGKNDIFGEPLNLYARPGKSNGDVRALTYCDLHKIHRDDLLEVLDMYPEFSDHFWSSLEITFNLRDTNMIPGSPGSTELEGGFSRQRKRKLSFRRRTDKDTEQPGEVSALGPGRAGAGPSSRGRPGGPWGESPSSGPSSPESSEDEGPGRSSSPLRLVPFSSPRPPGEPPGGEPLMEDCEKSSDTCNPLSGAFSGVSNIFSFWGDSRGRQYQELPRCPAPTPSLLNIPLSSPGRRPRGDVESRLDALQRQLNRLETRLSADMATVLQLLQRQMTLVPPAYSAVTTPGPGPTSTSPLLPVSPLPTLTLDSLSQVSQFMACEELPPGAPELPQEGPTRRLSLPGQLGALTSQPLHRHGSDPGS

[4] = DRUGMATRIX: Glutamate, NMDA, Phencyclidine radioligand binding (ligand: [3H] TCP); format: cell membranes, Rattus norvegicus, Wistar, Cerebral cortex, Membrane; conditions: Not Active = under 50% inhibition at 10 µM
[5] = molecular target: T1, C-C chemokine receptor type 4 (Homo sapiens, UniProt P51679); format: cell membranes, Chem-1, Membrane; further: in other assays of this panel Not Active means under 50% inhibition at 10 µM
T1 sequence (P51679 whole entry): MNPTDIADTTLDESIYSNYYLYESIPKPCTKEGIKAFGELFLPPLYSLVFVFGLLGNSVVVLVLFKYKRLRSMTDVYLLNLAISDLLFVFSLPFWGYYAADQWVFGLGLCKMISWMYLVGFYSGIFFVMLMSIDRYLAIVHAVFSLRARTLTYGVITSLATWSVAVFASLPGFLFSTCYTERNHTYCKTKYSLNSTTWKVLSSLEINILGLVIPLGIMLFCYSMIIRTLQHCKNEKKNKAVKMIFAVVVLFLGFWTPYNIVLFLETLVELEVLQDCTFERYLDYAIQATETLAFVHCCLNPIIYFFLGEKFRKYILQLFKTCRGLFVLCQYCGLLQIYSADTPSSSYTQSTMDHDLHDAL

[6] = molecular target: T2, Alpha-2A adrenergic receptor (Homo sapiens, UniProt P08913); format: cell membranes, Sf9, Membrane; conditions: for Ki: read-out: Ki; on all read-outs here: in other assays of this panel Not Active means under 50% inhibition at 10 µM
T2 sequence (P08913 whole entry): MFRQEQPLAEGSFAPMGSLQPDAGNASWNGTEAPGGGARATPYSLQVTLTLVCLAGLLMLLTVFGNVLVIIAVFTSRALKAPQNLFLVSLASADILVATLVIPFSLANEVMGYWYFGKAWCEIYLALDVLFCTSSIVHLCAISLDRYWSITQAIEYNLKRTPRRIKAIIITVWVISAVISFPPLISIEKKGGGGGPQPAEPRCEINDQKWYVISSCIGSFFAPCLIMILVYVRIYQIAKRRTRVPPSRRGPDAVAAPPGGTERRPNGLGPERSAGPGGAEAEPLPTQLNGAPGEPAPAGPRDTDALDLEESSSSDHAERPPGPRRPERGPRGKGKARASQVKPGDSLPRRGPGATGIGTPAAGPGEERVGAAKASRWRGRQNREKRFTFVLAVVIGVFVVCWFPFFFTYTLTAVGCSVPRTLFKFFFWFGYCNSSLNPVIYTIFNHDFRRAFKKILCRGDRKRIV

Sequence of Histamine H2 receptor (P25021 whole entry): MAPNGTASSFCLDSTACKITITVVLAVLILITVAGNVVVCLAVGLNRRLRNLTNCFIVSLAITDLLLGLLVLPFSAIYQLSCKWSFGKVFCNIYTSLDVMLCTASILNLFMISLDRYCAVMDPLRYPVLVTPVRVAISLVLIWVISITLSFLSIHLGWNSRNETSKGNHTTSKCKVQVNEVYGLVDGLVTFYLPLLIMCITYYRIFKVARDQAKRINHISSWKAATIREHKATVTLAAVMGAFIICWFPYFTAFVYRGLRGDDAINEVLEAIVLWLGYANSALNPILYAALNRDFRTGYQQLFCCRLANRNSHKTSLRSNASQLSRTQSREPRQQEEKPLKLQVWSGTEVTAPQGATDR

Row | SMILES | IC50 [1] | Ki [1] | IC50 ([2]; cho-k1) | IC50 [3] | Ki [3] | IC50 [4] | Ki [4] | IC50 ([5]; chem-1) | IC50 ([6]; sf9) | IC50 ([5]; read-out: IC50) [nM] | Ki ([5]; read-out: Ki) [nM] | IC50 ([1]; read-out: IC50) [nM] | IC50 ([6]; read-out: IC50) [nM] | Ki [6] [nM] | IC50 ([2]; read-out: IC50) [nM] | Ki ([2]; read-out: Ki) [nM]
1 | CC(C)(C)NC(=O)[C@@H]1C[C@@H]2CCCC[C@@H]2CN1C[C@@H](O)[C@H](Cc1ccccc1)NC(=O)[C@H](CC(N)=O)NC(=O)c1ccc2ccccc2n1 | Not Active | Not Active | Not Active | Not Active | Not Active | Not Active | Not Active | Not Active | Not Active |  |  |  |  |  |  | 
2 | CC(=O)[C@@]1(O)CC[C@H]2[C@@H]3C[C@H](C)C4=CC(=O)CC[C@]4(C)[C@H]3CC[C@@]21C | Not Active | Not Active | Not Active | Not Active | Not Active | Not Active | Not Active | Not Active | Not Active |  |  |  |  |  |  | 
3 | N[C@@H](Cc1ccc(N(CCCl)CCCl)cc1)C(=O)O | Not Active | Not Active | Not Active | Not Active | Not Active | Not Active | Not Active | Not Active | Not Active |  |  |  |  |  |  | 
4 | CCCCc1oc2ccccc2c1C(=O)c1cc(I)c(OCCN(CC)CC)c(I)c1 [AMIODARONE] |  |  |  |  |  |  |  |  |  | 21800 | 11400 |  |  |  |  | 
5 | OCCN(CCO)c1nc(N2CCCCC2)c2nc(N(CCO)CCO)nc(N3CCCCC3)c2n1 [DIPYRIDAMOLE] |  |  | Not Active | Not Active | Not Active | Not Active | Not Active | Not Active | Not Active |  |  | 1580 |  |  |  | 
6 | Cc1oncc1C(=O)Nc1ccc(C(F)(F)F)cc1 [LEFLUNOMIDE] | Not Active | Not Active | Not Active | Not Active | Not Active | Not Active | Not Active | Not Active | Not Active |  |  |  |  |  |  | 
7 | c1ccc([C@H]2CN3CCSC3=N2)cc1 [LEVAMISOLE] | Not Active | Not Active | Not Active | Not Active | Not Active | Not Active | Not Active | Not Active | Not Active |  |  |  |  |  |  | 
8 | N[C@@H](Cc1ccc(O)c(O)c1)C(=O)O [LEVODOPA] | Not Active | Not Active | Not Active | Not Active | Not Active | Not Active | Not Active | Not Active | Not Active |  |  |  |  |  |  | 
9 | N[C@@H](Cc1cc(I)c(Oc2ccc(O)c(I)c2)c(I)c1)C(=O)O [LIOTHYRONINE] |  |  | Not Active | Not Active | Not Active |  |  | Not Active | Not Active |  |  |  |  |  |  | 
10 | O=NN(CCCl)C(=O)NC1CCCCC1 [LOMUSTINE] | Not Active | Not Active | Not Active | Not Active | Not Active | Not Active | Not Active | Not Active | Not Active |  |  |  |  |  |  | 
11 | CCOC(=O)N1CCC(=C2c3ccc(Cl)cc3CCc3cccnc32)CC1 [LORATADINE] | Not Active | Not Active | Not Active |  |  | Not Active | Not Active | Not Active | Not Active |  |  |  |  |  |  | 
12 | Cn1ccnc1S [METHIMAZOLE] | Not Active | Not Active | Not Active | Not Active | Not Active | Not Active | Not Active | Not Active | Not Active |  |  |  |  |  |  | 
13 | CC[C@@H](CO)NC(=O)[C@@H]1C=C2c3cccc4[nH]cc(c34)C[C@H]2N(C)C1 [METHYLERGONOVINE] | Not Active | Not Active | Not Active | Not Active | Not Active | Not Active | Not Active | Not Active |  |  |  |  | 1590 | 596 |  | 
14 | COc1nc(C)nc(Cl)c1NC1=NCCN1 [MOXONIDINE] | Not Active | Not Active | Not Active | Not Active | Not Active | Not Active | Not Active | Not Active | Not Active |  |  |  |  |  |  | 
15 | COc1c(C)c2c(c(O)c1C/C=C(\C)CCC(=O)O)C(=O)OC2 [MYCOPHENOLIC ACID] | Not Active | Not Active | Not Active | Not Active | Not Active | Not Active | Not Active | Not Active | Not Active |  |  |  |  |  |  | 
16 | O=c1ncn2nc(Sc3ccc(F)cc3F)ccc2c1-c1c(Cl)cccc1Cl [NEFLAMAPIMOD] | Not Active | Not Active | Not Active | Not Active | Not Active | Not Active | Not Active | Not Active |  |  |  |  | 34200 | 12800 |  | 
17 | CN1CCN(CCCN2c3ccccc3Sc3ccc(Cl)cc32)CC1 [PROCHLORPERAZINE] |  |  | Not Active |  |  |  |  | Not Active |  |  |  |  |  |  |  | 
18 | CO[C@H]1/C=C/O[C@@]2(C)Oc3c(C)c(O)c4c(O)c(c(/C=N/N5CCN(C)CC5)c(O)c4c3C2=O)NC(=O)/C(C)=C\C=C\[C@H](C)[C@H](O)[C@@H](C)[C@@H](O)[C@@H](C)[C@H](OC(C)=O)[C@@H]1C [RIFAMPIN] | Not Active | Not Active | Not Active | Not Active | Not Active | Not Active | Not Active | Not Active | Not Active |  |  |  |  |  |  | 
19 | Nc1nc2ccc(OC(F)(F)F)cc2s1 [RILUZOLE] | Not Active | Not Active | Not Active |  |  | Not Active | Not Active | Not Active | Not Active |  |  |  |  |  |  | 
20 | Cc1nc2n(c(=O)c1CCN1CCC(c3noc4cc(F)ccc34)CC1)CCCC2 [RISPERIDONE] |  |  |  |  |  |  |  | Not Active |  |  |  |  |  |  |  | 
21 | C=CCC1(C(C)CCC)C(=O)NC(=O)NC1=O (centres undefined) [SECOBARBITAL] | Not Active | Not Active | Not Active | Not Active | Not Active | Not Active | Not Active | Not Active | Not Active |  |  |  |  |  |  | 
22 | C[C@@H]1CN(c2c(F)c(N)c3c(=O)c(C(=O)O)cn(C4CC4)c3c2F)C[C@H](C)N1 [SPARFLOXACIN] | Not Active | Not Active | Not Active |  |  | Not Active | Not Active | Not Active | Not Active |  |  |  |  |  |  | 
23 | Cc1noc(NS(=O)(=O)c2ccc(N)cc2)c1C [SULFISOXAZOLE] | Not Active | Not Active | Not Active | Not Active | Not Active | Not Active | Not Active | Not Active | Not Active |  |  |  |  |  |  | 
24 | CSc1ccc(/C=C2/C(C)=C(CC(=O)O)c3cc(F)ccc32)cc1 [SULINDAC SULFIDE] | Not Active | Not Active | Not Active | Not Active | Not Active | Not Active | Not Active | Not Active | Not Active |  |  |  |  |  |  | 
25 | Nc1c2c(nc3ccccc13)CCCC2 [TACRINE] | Not Active | Not Active | Not Active | Not Active | Not Active | Not Active | Not Active | Not Active | Not Active |  |  |  |  |  |  | 
26 | CC/C(=C(\c1ccccc1)c1ccc(OCCN(C)C)cc1)c1ccccc1 [TAMOXIFEN] |  |  |  |  |  |  |  | Not Active |  |  |  |  | 1930 | 726 | 9400 | 9240
27 | CC(C)N1CCN(c2ccc(OCC3COC(Cn4cncn4)(c4ccc(Cl)cc4Cl)O3)cc2)CC1 (centres undefined) [TERCONAZOLE] | Not Active | Not Active | Not Active | Not Active | Not Active | Not Active | Not Active | Not Active |  |  |  |  | 983 | 369 |  | 
28 | Nc1nc2nc[nH]c2c(=S)[nH]1 [THIOGUANINE] | Not Active | Not Active | Not Active |  |  | Not Active | Not Active | Not Active | Not Active |  |  |  |  |  |  | 
29 | Cc1cccc(N(C)C(=S)Oc2ccc3ccccc3c2)c1 [TOLNAFTATE] | Not Active | Not Active | Not Active | Not Active | Not Active | Not Active | Not Active | Not Active | Not Active |  |  |  |  |  |  | 
30 | NC[C@H]1CC[C@H](C(=O)O)CC1 [TRANEXAMIC ACID] | Not Active | Not Active | Not Active | Not Active | Not Active | Not Active | Not Active | Not Active | Not Active |  |  |  |  |  |  | 
